Assays:
[1] = molecular target: T1, High affinity nerve growth factor receptor (Homo sapiens, UniProt P04629); assay: Antagonist activity at full length glycosylated human TrkA expressed in HEKN3S cells assessed as reduction in NGF-induced ERK 42/44 phosphorylation incubated for 5 mins by automated immunofluorescence assay; assay type: cell-based
[2] = molecular target: T1, High affinity nerve growth factor receptor; assay: Displacement of [125I]NGF from full length human TrkA expressed in HEKN3S cells by gamma counting based radioligand competition assay; assay type: cell-based
[3] = molecular target: T1, High affinity nerve growth factor receptor; assay: Binding affinity to F303 residue of human recombinant TrkAIg2-NMR construct expressed in Escherichia coli by 1H-15N HSQC NMR spectroscopy
[4] = molecular target: T1, High affinity nerve growth factor receptor; assay: Binding affinity to V305 residue of human recombinant TrkAIg2-NMR construct expressed in Escherichia coli by 1H-15N HSQC NMR spectroscopy
[5] = molecular target: T1, High affinity nerve growth factor receptor; assay: Binding affinity to T292 residue of human recombinant TrkAIg2-NMR construct expressed in Escherichia coli by 1H-15N HSQC NMR spectroscopy
[6] = molecular target: T1, High affinity nerve growth factor receptor; assay: Binding affinity to C345 residue of human recombinant TrkAIg2-NMR construct expressed in Escherichia coli by 1H-15N HSQC NMR spectroscopy

T1 sequence (P04629 whole entry): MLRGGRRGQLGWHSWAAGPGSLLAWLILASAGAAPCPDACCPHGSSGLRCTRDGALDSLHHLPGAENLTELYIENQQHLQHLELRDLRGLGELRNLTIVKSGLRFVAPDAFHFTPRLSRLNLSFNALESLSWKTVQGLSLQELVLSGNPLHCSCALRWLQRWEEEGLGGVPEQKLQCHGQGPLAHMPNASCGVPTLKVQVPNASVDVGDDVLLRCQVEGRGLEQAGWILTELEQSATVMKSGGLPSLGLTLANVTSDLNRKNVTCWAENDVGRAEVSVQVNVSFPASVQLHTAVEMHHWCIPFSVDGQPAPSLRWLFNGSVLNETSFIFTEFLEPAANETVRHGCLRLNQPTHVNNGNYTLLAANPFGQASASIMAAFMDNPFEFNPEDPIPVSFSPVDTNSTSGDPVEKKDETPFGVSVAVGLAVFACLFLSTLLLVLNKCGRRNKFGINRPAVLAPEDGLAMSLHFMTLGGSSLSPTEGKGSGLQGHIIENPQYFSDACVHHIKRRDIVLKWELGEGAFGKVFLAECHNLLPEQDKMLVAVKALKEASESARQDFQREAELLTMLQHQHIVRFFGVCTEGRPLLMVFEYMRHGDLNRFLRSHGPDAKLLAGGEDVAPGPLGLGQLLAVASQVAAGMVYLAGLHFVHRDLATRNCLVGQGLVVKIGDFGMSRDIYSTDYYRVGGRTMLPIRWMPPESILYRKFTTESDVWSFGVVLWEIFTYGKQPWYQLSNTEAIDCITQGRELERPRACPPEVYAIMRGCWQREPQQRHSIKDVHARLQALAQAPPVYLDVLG

`CN(C)CCC=C1c2ccccc2CCc2ccccc21` [AMITRIPTYLINE] was tested, and the EC50 [1] was 86 µM, the IC50 [2] was 60 µM and the Kd [3] was 2200 µM. The Kd [4] was 2100 µM, the Kd [5] was 1800 µM and the Kd [6] was 2100 µM.
